Measured values taken from patent publication US12053452B2 (priority 2021, dated 2024).
Read-outs that look alike come from different tables or passages of the source.

Key:
[1] = human urine, after racemic MDMA; cited from earlier work
[2] = rats, cited from earlier work; for Cmax (maximum MDMA concentration): 2 mg/kg; for Cmax: 10 mg/kg
C57 mice [3] = experiment: Sociability test, C57; format: in vivo
Experimental: (§1) This assay was conducted in adult male C57 and BTBR mice (n=6 per group) in a dedicated conditioning room where ambient light, sound, and human contact were tightly controlled. Social preference chambers consist of two polycarbonate boxes (13.5 cm wide×22.5 cm tall×31.0 cm deep), floored with rough-textured black ABS plastic, and connected to one another by a 1.25″ PVC T-junction. An infrared photobeam emitter/detector array is mounted at each intersection of the T-junction and each preference compartment, and as a mouse traversed the apparatus, it would break the photobeam upon entry to or exit from each preference compartment. Beam breaks started or stopped a counter on an interfaced computer, allowing automated collection of time spent in each compartment. At the end of each test, data were reported as time (in seconds) spent in each compartment, the number of entries into each compartment, and the average time spent in each compartment following an entry. Social preference tests were conducted in an iterative manner, with each test subject completing four distinct phases as described below. Between testing sessions, chambers were sanitized by wiping the insides with a disinfectant product provided by the UAMS Department of Laboratory Animal Medicine. At the end of the week (upon completion of all phases of the procedure), each apparatus was disassembled and all parts were sanitized. No food or water were available during social preference sessions, but were available in the home cage immediately afterwards.
A single sociability session occurred the day after the novelty preference test, where one compartment contained a wire mesh cup with a dummy mouse inside while the other compartment contained a male NIH Swiss stranger mouse inside the previously empty cup. […] The position of the dummy mouse (left or right compartment) remained the same for each subject as during the novelty test the day before, thereby counterbalancing the position of the stranger mouse across subjects. NIH Swiss stranger mice were similar in mass and appearance to the dummy PVC mice, and were housed separately from the experimental subjects (C57 and BTBR mice) in the colony facility. The first time the experimental subjects ever encountered the stranger mice was when they entered the compartment where they were contained. During this session, mice were weighed, administered the same injection as the day before, and returned to their home cage for a 30 min pretreatment period. Mice were then introduced into the T-junction and allowed to explore both preference compartments for 15 minutes. Sociability tests always occurred on Wednesdays or Thursdays to prevent any weekend testing.

C57 mice [4] = conditions: mouse, in vivo; for locomotor activity: ip
C57 mice [5] = experiment: Social preference procedure: compartment entries (proxy for locomotor stimulant effects), C57; format: in vivo
Experimental: as §1
Quantification of total entries into the preference compartments provided a proxy measurement for locomotor stimulant effects of the various doses of the various test drugs. This established a limit to the drug doses that can be tested in the social preference procedure, as induction of locomotor stimulant effects confounds preference assessments (because mice stop attending to the social stimuli in each compartment and instead spend their time engaged in locomotor behavior.) Motor activity varied across the distinct phases of social preference testing, in part because the habituation session is twice as long (30 minutes) as the novelty, sociability, and social novelty tests (15 minutes each), but also because mice emitted high levels of exploratory behavior in novel environments. Thus, as familiarity with the test apparatus increased over successive exposures to the chambers, the number of entries decreased.
(Note that entries were collected for every test, but drug effects on entries during earlier phases may be less reliable due to the confounding influence of changing familiarity with the apparatus across phases.)

[6] = autistic adults, MDMA-assisted psychotherapy; cited from earlier work
BTBR mice [7] = experiment: Radiotelemetry of core temperature, BTBR; format: in vivo
Experimental: The radiotelemetry assay was conducted in adult male C57 and BTBR mice (n=6 per group) in a dedicated testing room where ambient light, sound, and human contact were tightly controlled.
Prior to surgical implantation of radiotelemetry probes, mice received 3 mg/kg meloxicam (IP), and anesthesia was induced with 4% inhaled isoflurane and maintained with 1-3% isoflurane (as needed) throughout the procedure at a flow rate of 1.5 litres/minute. The abdominal area of each animal was treated with depilatory cream, then sanitized with 3 alternating scrubs with iodine and alcohol. A rostral-caudal cut approximately 1.5 cm in length was made with sterile skin scissors, providing access to the intraperitoneal cavity. A cylindrical glass-encapsulated radiotelemetry probe (model ER-4000 E-Mitter, Mini Mitter, Bend, OR, USA) was then inserted. These probes measure 15.5 mm×6.5 mm and weigh approximately 1 gram. Incisions were closed (skin layer and muscle layer separately) using reverse cutting 5-0 Vicryl absorbable sutures for the muscle layer and 5-0 nylon suture material for the skin layer. Surgeries were carried out at least 7 days before initiation of experimental conditions, allowing time for incisions to heal and for animals to recover normal body weights. Following surgery, all implanted mice were individually housed in Plexiglas cages within the telemetry room for the duration of all experiments. Implanted transmitters produce activity- and temperature-modulated signals which are sent to a receiver (model ER-4000 Receiver, Mini Mitter Co., Inc.) underneath each cage. Following use, telemetry probes were removed from carcasses, wiped with alcohol swabs, and stored in the disinfectant solution until re-use.
At least 7 days after surgical implantation of radiotelemetry probes, mice in their individual home cages were placed atop a telemetry energizer/receiver, which powered probes and transmitted their data to an interfaced computer. Upon initiation of an experimental session, the computer collected two data updates from the probes at 5 min intervals: core temperature (in ° C.) on one channel, and locomotor counts (in arbitrary units, depending on the relative position of the probe atop the receiver) on the other. After at least 60 minutes of baseline data collection, mice were removed from their cages, injected with saline or a given dose of a specific drug, then returned to the home cage 24 hours of data collection.
Food and water were always freely available in the home cage. Mice were injected with ascending doses of a given drug, with at least 48 hours separating doses. Because there are few studies of drug effects in BTBR mice, the first drug dose tested occasionally elicited unexpectedly large locomotor effects in these animals. In these cases, smaller drug doses were tested next, after a washout period of at least one full day.

[8] = phase 3 trials, MDMA-assisted psychotherapy; cited from earlier work
BTBR mice [9] = experiment: Sociability test, BTBR; format: in vivo; conditions: 3.0 mg/kg IP
Experimental: as §1, with “At the end of the week (upon completion of all phases of the procedure), each apparatus was disassembled and all parts were sanitized. No food or water were available during social preference sessions, but were available in the home cage immediately afterwards.” left out

Compound: CNC(C)Cc1ccc2c(c1)OCO2 (racemic) [racemic MDMA, 1-(1,3-benzodioxol-5-yl)-N-methylpropan-2-amine]
- enantiomer with higher Cmax [1]: Higher R-enantiomer Cmax
- Cmax (maximum MDMA concentration) ([2]; intraperitoneal): 210 ng/mL
- Cmax (maximum MDMA concentration) ([2]; oral): 46 ng/mL
- Cmax (maximum MDMA concentration) ([2]; subcutaneous): 196 ng/mL
- Cmax ([2]; intraperitoneal): 2257 ng/mL
- Cmax ([2]; oral): 966 ng/mL
- Cmax ([2]; subcutaneous): 1130 ng/mL
- sociability (time spent with the stranger mouse vs dummy) (C57 mice [3]; 3.0 mg/kg IP, 3 mg/kg): moderate preference for the stranger over the dummy
- sociability (time spent with the stranger mouse vs dummy) (C57 mice [3]; 3.0 mg/kg IP, listed as racemic (50/50) MDMA, 3 mg/kg): elicit significant effects on sociability
- sociability (time spent with the stranger mouse vs dummy) (C57 mice [3]; various doses IP): dose-dependent increase in time spent with the stranger mouse
- locomotor dose-effect curve (total ambulatory activity) (C57 mice [4]): classical “inverted U-shaped” dose-effect curve
- pattern of locomotor activity across the time course (C57 mice [4]): consistent with motor stereotypy
- stereotypy or hyperstimulation of mice (C57 mice [4]): stereotypy or hyperstimulation of mice is seen
- locomotor activity (C57 mice [4]; 10 mg/kg): lesser hyperactivity is observed
- locomotor activity (C57 mice [4]; 30 mg/kg): elicit more activity than the pure S(+)-MDMA
- compartment entries (locomotor stimulant effect) (C57 mice [5]; 3.0 mg/kg IP, social novelty test): had no effects on locomotor activity
- compartment entries (locomotor stimulant effect) (C57 mice [5]; various doses IP): dose-response stimulant effect
- social anxiety symptoms [6]: rapid and durable improvement in social anxiety symptoms
- effect on core temperature (BTBR mice [7]; 30 mg/kg IP): results in an increase in temperature but is not as significant as S-MDMA
- rise in core temperature (BTBR mice [7]; 56 mg/kg IP): ~2 degrees C.
- effect on core temperature (BTBR mice [7]; various/increasing doses IP): gradual increase in core temperature
- effect on core temperature (BTBR mice [7]; various/increasing doses IP, listed as racemic compositions of MDMA): dose dependent increase in temperature
- efficacy to treat Post Traumatic Stress Disorder (PTSD) [8]: demonstrated efficacy

Compound: CN[C@@H](C)Cc1ccc2c(c1)OCO2 [S(+)-MDMA, (2S)-1-(1,3-benzodioxol-5-yl)-N-methylpropan-2-amine]
- sociability (time spent with the stranger mouse vs dummy) (C57 mice [3]; 3.0 mg/kg IP): not different from saline
- sociability (time spent with the stranger mouse vs dummy) (C57 mice [3]; various doses IP): no systematic effects on sociability
- sociability (time spent with the stranger mouse vs dummy) (BTBR mice [9]): did not alter sociability
- locomotor dose-effect curve (total ambulatory activity) (C57 mice [4]): classical “inverted U-shaped” dose-effect curve
- stereotypy or hyperstimulation of mice (C57 mice [4]): stereotypy or hyperstimulation of mice is seen
- locomotor activity (C57 mice [4]; 10 mg/kg): elicits the greatest locomotor stimulation
- compartment entries (locomotor stimulant effect) (C57 mice [5]; various doses IP): dose-response stimulant effect
- effect on core temperature (BTBR mice [7]; 10 mg/kg IP, 10 mg/kg): elicited a similar increase in temperature
- effect on core temperature (BTBR mice [7]; 10 mg/kg IP, listed as S-MDMA, 10 mg/kg): did not differ much from that observed with Racemic MDMA
- jump in core temperature (BTBR mice [7]; 18 mg/kg i.p): greater than that observed by administration of 56 mg/kg i.p of Racemic MDMA
- effect on core temperature (BTBR mice [7]; 30 mg/kg IP, 30 mg/kg): elicited a large hyperthermic response
- effect on core temperature (BTBR mice [7]; 30 mg/kg IP, listed as S-MDMA, 30 mg/kg): strong hyperthermic response
- effect on core temperature (BTBR mice [7]; various/increasing doses IP): dose dependent increase in temperature
- effect on core temperature (BTBR mice [7]; various/increasing doses IP, listed as S-MDMA): dose-dependent increase in temperature
